Reference: patent US11678682B2, “Phosphor composition having selected surface coatings” (IMMUNOLIGHT, LLC, priority 2013, dated 2023)
Read-outs that look alike come from different tables or passages of the source.

How the values were obtained:
[1] = system: cisplatin-resistant cells; settings: photolyzed complex; cited from earlier work
[2] = system: human bladder cancer cells; settings: cited from earlier work
[3] = system: B16 cancer cells; test: Clonogenic cell kill (surviving colonies) with x-ray stimulated phosphor mixtures with and without psoralen (AMT); format: cell-based
Source text: Accordingly, combinations of more than two “visible” phosphors can be used in this invention. Discussed below are x-ray settings and mass ratios for clonogenic cell kill experiments. F1 refers to the insertion of an aluminum filter into the x-ray beam to act as a filter.
Psoralen is known to be activated by UV light in the range from 300 to 400 nm. Thus, a measure of cell kill would normally be assumed to be an indirect measure of the internal generation of UV light.
FIGS. 18A and 18B is a plotted cell kill comparison (shown here as the number of surviving colonies) between B16 cancer cells treated with and without psoralen (i.e., AMT) with different phosphor mixtures, but otherwise being x-ray stimulated and containing the multiple phosphor combinations noted above. On these drawings, LDLE=low xRT dose, low energy; HDHE=high xRT dose, high energy.

[4] = system: cells; settings: cells kept in the dark compared to those exposed to light; cited from earlier work

Cis,trans,cis-[Pt(N3)2(OH)2(NH3)2]
growth inhibition [1]: inhibits the growth | growth inhibition ([2]; cells treated with the complex and kept in the dark): very little growth inhibition | growth inhibition ([2]; photolyzed complex): inhibits the growth

O=c1ccc2cc3ccoc3cc2o1 [psoralen]
cell kill (number of surviving colonies), with versus without psoralen (FIGS. 18A and 18B) ([3]; B16 cells, x-ray stimulated RYG/FYG phosphor mixtures): improved cell kill | clonogenic colony survival, with versus without psoralen (FIG. 19C) ([3]; flamingo, yellow, green FYG phosphor combination): pronounced cell kill | cell kill, with versus without psoralen (FIGS. 19A and 19B) ([3]; higher kVp x-ray conditions): does not show an increased kill

NCCN.[Cl][Pt]([Cl])([I])[I] [[PtCl2I2(en)]]
cytotoxicity, dark versus light [4]: no difference in cytotoxicity
